In patent publication US8809280B2, “Therapeutic peptides” (Lytix Biopharma AS, priority 2009, dated 2014):
Values after ≈ are worked out from the molar mass of the structure shown. Values joined by “and” are separate entries in the source; they are usually repeats but may differ in a detail not shown here. Equal entries are not always repeated. Starred links: 1 amine or outer side, 2 acyl side, 3 side chain; linkers in the order of their positions; H or OH if unused. Non-standard residues stand in square brackets, D forms with d. Residues, ends and D or L forms follow the SMILES beside them. X2 = O=C(C(CCCc1ccccc1)(CCCc1ccccc1)CN[*:1])[*:2]; X5 = O=C(C(CCC1CCCCC1)(CCC1CCCCC1)CN[*:1])[*:2]; X3 = O=C(C(CN[*:1])(Cc1ccccc1)Cc1ccccc1)[*:2]

Legend:
Format in all cases: cell-based
[1] = system: methicillin resistant Staphylococcus aureus (ATCC 33591); assay: microbe, parasite or virus in culture; settings: Staphylococcus aureus, ATCC 33591 / MRSA, Example 2; values separated by / are repeat tests; read-out: Antimicrobial potency (MIC) MRSA
Procedure: (§1) The antimicrobial testing was conducted by TosLab A/S (Tromsø, Norway). Each compound was diluted to 1 mg/ml in water and tested in duplicates at 200, 100, 50, 35, 15, 10, 5, 2.5, 1, 0.5 μg/ml except 4n which was tested at 50, 35, 15, 10, 5, 2.5, 1, 0.5 μg/ml due to solubility problems. All tested compounds were di TFA salts.
(§2) The bacterial strains were grown in 2% Bacto Peptone water until exponential growth was achieved. […] A bacterial concentration of 2×10^6 cfu/ml was used. Both negative control (no peptide) and positive control (Gentamicin) was used for all bacterial strains. Growth or no growth was judged by the turbidity of the wells.
Methicillin resistant Staphylococcus aureus (ATCC 33591)
(§3) Antimicrobial assays: 200 μg/ml
(§4) Suitable methodologies are described in Example 1.
(§5) Each compound was tested in duplicates at 200, 100, 50, 35, 15, 10, 5, 2.5, 1, 0.5 μg/ml. All tested compounds were di-trifluoroacetic acid salts.

human red blood cells = assay: cells; settings: Homo sapiens, Erythrocyte; Example 2; highest concentration tested 1000 μg/ml; * low solubility in the test media; read-out: Toxicity RBC (EC50)
Procedure: The hemolytic testing against human erythrocytes was conducted by Lytix Biopharma A/S (Tromso, Norway). Each compound was tested from a concentration of 1 mg/ml and lower, except 4k and 4n which was only tested up to 0.5 mg/ml due to solubility problems. 8 mL of blood was collected from adult healthy male donors. The blood was divided equally and distributed in a commercial available EDTA containing test tube (BD vacutainer, 7.2 mg K2 EDTA) and in a 10 mL reaction vial containing 40 μL of a heparin solution (1000 U/mL in 0.9% sodium chloride). After 30 minutes the hematocrit of the EDTA treated blood was determined. The heparinized blood was centrifuged for 10 minutes at 1500 rpm and the supernatant removed. Subsequently the RBCs were washed with prewarmed PBS three times, and diluted to 10% hematocrit. The compounds dissolved in PBS (concentration 1 μg/mL to 1000 µg/mL) and the erythrocytes were incubated under agitation at 37° C. for one hour. A positive control with an end concentration of 0.1% TRITON X-100 (nonionic surfactant) and a negative control containing pure PBS buffer were included. The samples were centrifuged (4000 rpm) for 5 minutes and the absorption of the supernatant was measured at 405 nm. The values given in Table 1A correspond to 50% hemolysis.
The plasma fraction of heparinized human blood was first removed by centrifugation and three additional washing steps with 37° C. pre-warmed phosphate buffered saline (PBS). Subsequently, the human RBC were diluted to 10% hematocrit and the β^2,2-amino acid derivatives were dissolved in PBS providing concentrations ranging from 1-1000 μg/mL. The diluted RBC were added to the compound solutions to a final erythrocyte concentration of 1% v/v. PBS and TRITON X-100 (non-ionic surfactant), in a final concentration of 0.1% v/v, were included as negative and positive control. After 1 hour agitated incubation at 37° C. the samples were centrifuged at 4000 rpm for 5 min. Release of hemoglobin was determined by measuring the absorbance of the supernatant at 405 nm. Hemolytic activity was calculated as the ratio of treated sample with β^2,2-amino acid derivative and tenside treated sample according to the formula: […]

[2] = system: methicillin resistant Staphylococcus epidermidis (ATCC 27626); assay: microbe, parasite or virus in culture; settings: Staphylococcus epidermidis, ATCC 27626 / MRSE, Example 2; values separated by / are repeat tests; read-out: Antimicrobial potency (MIC) MRSE
Procedure: as §1, §2
Methicillin resistant Staphylococcus epidermidis (ATCC 27626)
as §3, §4, §5

MRC-5 = assay: Toxicity assay MRC-5; settings: highest concentration tested 500 μg/ml; for Toxicity MRC-5: Example 2; for IC50: Homo sapiens, MRC5, Example 2
Procedure: Cells for Toxicity Studies Used MRC-5 and human RBC MRC-5 assay: 500 μg/ml

[3] = system: Staphylococcus aureus (ATTC 25923); assay: microbe, parasite or virus in culture; settings: Staphylococcus aureus, Example 2; values separated by / are repeat tests; read-out: Antimicrobial potency (MIC) S. aureus
Procedure: as §1, §2
Staphylococcus aureus (ATTC 25923)
as §3, §4, §5

[4] = system: Escherichia coli (ATTC 25922); assay: microbe, parasite or virus in culture; settings: Escherichia coli, Example 2; values separated by / are repeat tests; read-out: Antimicrobial potency (MIC) E. coli
Procedure: as §1, §2
Escherichia coli (ATTC 25922)
as §3, §4, §5

A20 = assay: cells; settings: for Anti-Cancer Selectivity MRC-5/A20: ratio of MRC-5 to A20 values
Procedure: Cancer Cell Lines A20 or MethA Anticancer assays: 500 μg/ml

Row | Compound | MIC [1] [µg/mL] | EC50 (human red blood cells) [µg/mL] | MIC [2] [µg/mL] | Toxicity MRC-5 (MRC-5) | IC50 (MRC-5) [µg/mL] | MIC [3] [µg/mL] | MIC [4] [µg/mL] | Anticancer potency (IC50) A20 (A20) [µg/mL] | Anti-Cancer Selectivity MRC-5/A20 (A20)
1 | Cc1ccc(CC(CN)(Cc2ccc(C)cc2)C(=O)NCCN)cc1 [Compound 8, 3-amino-N-(2-aminoethyl)-2,2-bis(4-methylbenzyl)propanamide] | 100 (≈ 295 µM) | > 1000 | 100 (≈ 295 µM) | 44 µg/mL | 26 (≈ 76.6 µM) | 200 (≈ 589 µM) | > 200 | – | –
2 | COc1cc(CC(CN)(Cc2cc(OC)cc(OC)c2)C(=O)NCCN)cc(OC)c1 [Compound 13, 3-amino-N-(2-aminoethyl)-2,2-bis(3,5-dimethoxy-benzyl)propanamide] | 200 (≈ 463 µM) | > 1000 | 100 (≈ 232 µM) | 68 µg/mL | 62.5 (≈ 145 µM) | 200 (≈ 463 µM) | > 200 | – | –
3 | NCCCC[C@@H](N)C(=O)N[C@H](CCCCN)C(=O)N[C@H](Cc1c[nH]c2ccccc12)C(=O)NCC(CCC1CCCCC1)(CCC1CCCCC1)C(=O)N[C@@H](Cc1c[nH]c2ccccc12)C(=O)N[C@@H](CCCCN)C(=O)N[C@@H](CCCCN)C(N)=O [Compound 15, (R)-N-((2R,9S,12S,15S)-9-((1H-indol-3-yl)methyl)-19-amino-12-(4-aminobutyl)-15-carbamoyl-6,6-bis(2-cyclohexylethyl)-1-(1H-indol-3-yl)-3,7,10,13-tetraoxo-4,8,11,14-tetraazanonadecan-2-yl)-6-amino-2-((R)-2,6-diaminohexanamido)hexanamide] (H-[dK][dK][dW][X5]WKK-NH2) | – | – | – | 45.7 µg/mL | – | – | – | 15.0 | 3.0
4 | NCCCC[C@@H](N)C(=O)N[C@H](CCCCN)C(=O)N[C@H](Cc1c[nH]c2ccccc12)C(=O)NCC(Cc1ccccc1)(Cc1ccccc1)C(=O)N[C@@H](Cc1c[nH]c2ccccc12)C(=O)N[C@@H](CCCCN)C(=O)N[C@@H](CCCCN)C(N)=O [Compound 16, (R)-N-((2R,9S,12S,15S)-9-((1H-indol-3-yl)methyl)-19-amino-12-(4-aminobutyl)-6,6-dibenzyl-15-carbamoyl-1-(1H-indol-3-yl)-3,7,10,13-tetraoxo-4,8,11,14-tetraazanonadecan-2-yl)-6-amino-2-((R)-2,6-diaminohexanamido)hexanamide] (H-[dK][dK][dW][X3]WKK-NH2) | – | – | – | >500 µg/mL | – | – | – | 263 | (>1.9)
5 | NCCCC[C@@H](N)C(=O)N[C@H](CCCCN)C(=O)N[C@H](Cc1c[nH]c2ccccc12)C(=O)NCC(CCCc1ccccc1)(CCCc1ccccc1)C(=O)N[C@@H](Cc1c[nH]c2ccccc12)C(=O)N[C@@H](CCCCN)C(=O)N[C@@H](CCCCN)C(N)=O [Compound 17, (R)-N-((2R,9S,12S,15S)-9-((1H-indol-3-yl)methyl)-19-amino-12-(4-aminobutyl)-15-carbamoyl-1-(1H-indol-3-yl)-3,7,10,13-tetraoxo-6,6-bis(3-phenylpropyl)-4,8,11,14-tetraazanonadecan-2-yl)-6-amino-2-((R)-2,6-diaminohexanamido)hexanamide] (H-[dK][dK][dW][X2]WKK-NH2) | – | – | – | 241 µg/mL and 221 µg/mL | – | – | – | – | 9.1 and 5.5
6 | NCCCC[C@@H](N)C(=O)N[C@H](CCCCN)C(=O)N[C@H](Cc1c[nH]c2ccccc12)C(=O)NCC(Cc1ccc2ccccc2c1)(Cc1ccc2ccccc2c1)C(=O)N[C@@H](Cc1c[nH]c2ccccc12)C(=O)N[C@@H](CCCCN)C(=O)N[C@@H](CCCCN)C(N)=O [Compound 18, (R)-N-((2R,9S,12S,15S)-9-((1H-indol-3-yl)methyl)-19-amino-12-(4-aminobutyl)-15-carbamoyl-1-(1H-indol-3-yl)-6,6-bis(naphthalen-2-ylmethyl)-3,7,10,13-tetraoxo-4,8,11,14-tetraazanonadecan-2-yl)-6-amino-2-((R)-2,6-diaminohexanamido)hexanamide] | – | – | – | 103 µg/mL | – | – | – | 24 | 4.3
